Results reported in patent publication US8927572B2, “Crystal form I of salt of a dipeptidyl peptidase-IV inhibitor and preparation method and use thereof” (Xuanzhu Pharma Co., Ltd., priority 2011, dated 2015).
Counter-ions that a name gives are not always drawn.

Columns and labels:
[1] = Investigation on the water solubility; assay type: physicochemical
Source text: Investigation on the Water Solubility of Crystal Form I of Dihydrochloride Salt of Compound A

DPP-IV = DPP-IV (Homo sapiens, UniProt P27487); conditions: background; described in CN201010291056.9; cited from earlier work
[2] = In vivo pharmacokinetics in SD rats; design: species or system SD (Sprague Dwaley) rats
Method: (§1) Test sample: the crystal form I of dihydrochloride salt of Compound A prepared from Example 1.
Experimental Animals: SD (Sprague Dwaley) rats, quantity 12.
The SD rats were divided into two groups, namely Intravenous Injection group and Intragastric Administration group, and there were 6 rats in each group in which one half were female and the other were male. The dose administrated was always 10 mg/kg (in terms of Compound A). The volume administered by the intravenous injection route was 5 mL/kg, and the volume administered by the intragastric administration route was 10 mL/kg. The time points for sequential blood sampling were 0 minutes before administration (0 min), and 5 min, 15 min, 30 min, 1 h, 2 h, 4 h, 6 h, 8 h, 12 h and 24 h after administration. About 150 μL of blood was collected into a sodium heparin anticoagulation tube from the caudal vein or Inner canthus vein after administration. The whole blood was placed in a high-speed refrigerated centrifuge (8000 rpm, 0-4° C.) and centrifuged for 6 min. The supernatant of the blood plasma was separated and stored in a refrigerator for measurement. The centrifugation of all blood samples was completed within 30 min after blood collection. The concentration of Compound A in the blood plasma of SD rats was determined by LC-MS/MS method.
Analysis and processing of Data: The plasma concentration—time curve was plotted, and the pharmacokinetic parameters were calculated by using the non-compartment model in Phrsight Phoenix 6.1.

[3] = Influence factor stability test (high temperature, high humidity, light irradiation); assay type: physicochemical
Method: The crystal form I of dihydrochloride salt of Compound A prepared from Example 1.
The Test Conditions for Investigating the Influencing Factors:
Each of the test samples was placed at a high temperature of 60° C. (packed with an plastic bag for packing drugs as the inner layer and an aluminium foil as the outer layer), a high humidity of RH75%±5% (uniformly spread on a dry and clean watch glass), and a light irradiation of 4500 Lx±500 Lx (uniformly spread on a dry and clean watch glass). Sampling was performed on Day 5 and Day 10 respectively, and Relevant Substance and the content of Compound A were measured and compared with those of the sample on Day 0.
(§2) The content was measured by using an External Standard method in accordance with the High Performance Liquid Chromatography in Chinese Pharmacopoeia, Appendix V D, Edition 2010.
(§3) Measurement of Relevant Substance
(§4) The Relevant Substance was measured by using an Area Normalization method in accordance with the High Performance Liquid Chromatography in Chinese Pharmacopoeia, Appendix V D, Edition 2010.

blood glucose = experiment: Oral Glucose Tolerance Test (OGTT) in mice; assay type: in vivo, Mice C57BL/6; conditions: for inhibition ratio for the blood glucose AUC: glucose 3 g/kg
Method: as §1
Experimental animals: Mice C57BL/6, quantity 40.
On the day before the test, the food for mice was removed at 5 p.m., and the mice were fasted overnight. On the second day, the fasting blood glucose of each mouse was checked at 9 a.m. and recorded as −30 min blood glucose. The body weight was weighed and recorded. After balancing the blood glucose level and body weight, the mice were randomly divided into four groups, namely Background Control group, Vehicle Control group, Dosing group 1 and Dosing group 2. To the later three groups, a vehicle (0.9% sodium chloride injection solution), 1 mg/kg test sample and 3 mg/kg test sample was administered respectively, and the volume administered was 10 mL/kg. The blood glucose of each mouse was measured and recorded as 0 min blood glucose 30 minutes after the intragastric administration. Afterwards glucose was further administered via intragastric administration at a dose of 3 g/kg to the Vehicle Control group, Dosing group 1 and Dosing group 2, and 0.9% sodium chloride injection solution was administered via intragastric administration to the Background Control group at an intragastric administration volume of 10 mL/kg. Then, the blood glucose levels were measured at 20, 40, 60 and 120 minutes after the administration of glucose or sodium chloride solution.
Analysis and Processing of the Data:
The area under the time-blood glucose curve of the OGTT (Oral Glucose Tolerance Test) (AUC) was calculated. A net variable AUC (ΔAUC) was obtained by subtracting the AUC of Background Control group from that of Vehicle Control group, Dosing groups 1 and 2. The inhibition ratio (%)=100×(ΔAUCVehicle Control group-ΔAUC)/ΔAUCVehicle Control group, wherein ΔAUC is the net variable AUC of each Dosing group, and ΔAUCVehicle Control group is the net variable AUC of Vehicle Control group. The data of Dosing groups were compared with that of Vehicle Control group by using t-test value analysis, and the difference was considered significant at p<0.05.

Long-term stability test = assay type: physicochemical; conditions: for Content of Compound A (%) / Content of Relevant Substance (%) / Properties: 25° C.±2° C., RH 60%±10%
Method: The Test Conditions for Investigating the Long-Term Stability:
Each of the test samples was placed at a temperature of 25° C.±2° C. and a humidity of RH 60%±10%. Sampling was performed at the end of Months 3, 6, 9, 12 and 18 respectively, and Relevant Substance and the content of Compound A were measured and compared with those of the sample on Day 0. During the investigation, the sample was packed with a plastic bag for packing drugs as the inner layer and an aluminium foil as the outer layer.
as §2, §3, §4

[4] = intravenous injection, 10 mg/kg (in terms of Compound A)

Chain of DPP-IV (P27487 whole entry, species assumed): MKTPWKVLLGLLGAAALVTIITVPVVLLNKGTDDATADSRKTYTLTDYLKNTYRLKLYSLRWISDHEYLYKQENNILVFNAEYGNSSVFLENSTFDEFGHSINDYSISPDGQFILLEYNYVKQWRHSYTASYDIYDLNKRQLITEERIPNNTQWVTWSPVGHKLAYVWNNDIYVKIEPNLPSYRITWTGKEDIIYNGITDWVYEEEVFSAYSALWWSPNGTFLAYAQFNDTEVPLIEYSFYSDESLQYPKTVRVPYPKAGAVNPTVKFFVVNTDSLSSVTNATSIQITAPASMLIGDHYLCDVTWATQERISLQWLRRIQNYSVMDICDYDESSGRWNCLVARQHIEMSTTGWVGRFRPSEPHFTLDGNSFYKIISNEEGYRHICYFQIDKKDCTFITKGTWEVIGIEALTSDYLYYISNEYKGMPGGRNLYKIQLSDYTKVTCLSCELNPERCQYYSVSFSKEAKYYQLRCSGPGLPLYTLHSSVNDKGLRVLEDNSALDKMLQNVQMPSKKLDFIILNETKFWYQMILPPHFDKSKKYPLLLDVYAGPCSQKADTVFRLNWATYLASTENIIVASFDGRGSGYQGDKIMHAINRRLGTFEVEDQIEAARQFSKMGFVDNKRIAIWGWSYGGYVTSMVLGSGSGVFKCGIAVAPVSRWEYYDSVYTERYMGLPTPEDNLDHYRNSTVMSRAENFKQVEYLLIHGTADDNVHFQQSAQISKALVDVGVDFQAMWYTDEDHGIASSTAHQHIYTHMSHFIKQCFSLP

Cc1cc(N2CCC[C@@H](N)C2)c2c(n1)n(C)c(=O)n2Cc1ccccc1C#N [Compound A, (R)-2-[[7-(3-aminopiperidin-1-yl)-3,5-dimethyl-2-oxo-2,3-dihydro-1H-imidazo[4,5-b]pyridin-1-yl]methyl]benzonitrile]
Water solubility [1]: <0.1 mg/mL
Water solubility (in words) [1]: hardly dissolved or insoluble in water
inhibitory effect for DPP-IV (in words) (DPP-IV): strong inhibitory effect
selectivity for DPP-IV (in words) (DPP-IV): very high selectivity

Cc1cc(N2CCC[C@@H](N)C2)c2c(n1)n(C)c(=O)n2Cc1ccccc1C#N
bioavailability ([2]; both sexes, Sprague-Dawley, rat, plasma, oral, intragastric vs intravenous, 10 mg/kg (in terms of Compound A), read-out: bioavailability (F %)): 96.6%

Cc1cc(N2CCC[C@@H](N)C2)c2c(n1)n(C)c(=O)n2Cc1ccccc1C#N [crystal form I of dihydrochloride salt of Compound A]
Content of Compound A (%) ([3]; 60° C., Day 5): 98.80%
Content of Relevant Substance (%) ([3]; 60° C., Day 5): 0.156%
Properties ([3]; 60° C., Day 5): white crystalline
Content of Compound A (%) ([3]; 60° C., Day 10): 99.42%
Content of Relevant Substance (%) ([3]; 60° C., Day 10): 0.142%
Properties ([3]; 60° C., Day 10): white crystalline
Content of Compound A (%) ([3]; 4500Lx ± 500Lx, Day 5): 98.09%
Content of Relevant Substance (%) ([3]; 4500Lx ± 500Lx, Day 5): 0.194%
Properties ([3]; 4500Lx ± 500Lx, Day 5): white crystalline
Content of Compound A (%) ([3]; 4500Lx ± 500Lx, Day 10): 99.17%
Content of Relevant Substance (%) ([3]; 4500Lx ± 500Lx, Day 10): 0.159%
Properties ([3]; 4500Lx ± 500Lx, Day 10): white crystalline
Content of Compound A (%) ([3]; Day 0): 99.16%
Content of Relevant Substance (%) ([3]; Day 0): 0.151%
Properties ([3]; Day 0): white crystalline
Content of Compound A (%) ([3]; RH 75% ± 5%, Day 5): 99.30%
Content of Relevant Substance (%) ([3]; RH 75% ± 5%, Day 5): 0.200%
Properties ([3]; RH 75% ± 5%, Day 5): white crystalline
Content of Compound A (%) ([3]; RH 75% ± 5%, Day 10): 99.55%
Content of Relevant Substance (%) ([3]; RH 75% ± 5%, Day 10): 0.171%
Properties ([3]; RH 75% ± 5%, Day 10): white crystalline
Relevant Substance and the content of Compound A (change, in words) ([3]; high temperature, high humidity and light irradiation): substantially unchanged
Water solubility [1]: >1000 mg/mL
Water solubility (in words) [1]: dissolved very easily in water
in vivo bioavailability (in words) [2]: high
apparent volume of distribution (Vd) [2, 4]: 6.17 L/kg
plasma clearance (CL) [2, 4]: 40 mL/min/kg
effect for reducing blood glucose (in words) (blood glucose; mice C57BL/6): significant effect for reducing blood glucose
inhibition ratio for the blood glucose AUC (blood glucose; mice C57BL/6, 1 mg/kg intragastric): 57%
inhibition ratio for the blood glucose AUC (blood glucose; mice C57BL/6, 3 mg/kg intragastric): 65%
Content of Compound A (%) (Long-term stability test; Month 0): 99.53%
Content of Relevant Substance (%) (Long-term stability test; Month 0): 0.211%
Properties (Long-term stability test; Month 0): white crystalline
Content of Compound A (%) (Long-term stability test; Month 3): 99.32%
Content of Relevant Substance (%) (Long-term stability test; Month 3): 0.251%
Properties (Long-term stability test; Month 3): white crystalline
Content of Compound A (%) (Long-term stability test; Month 6): 99.19%
Content of Relevant Substance (%) (Long-term stability test; Month 6): 0.246%
Properties (Long-term stability test; Month 6): white crystalline
Content of Compound A (%) (Long-term stability test; Month 9): 98.99%
Content of Relevant Substance (%) (Long-term stability test; Month 9): 0.248%
Properties (Long-term stability test; Month 9): white crystalline
Content of Compound A (%) (Long-term stability test; Month 12): 99.17%
Content of Relevant Substance (%) (Long-term stability test; Month 12): 0.221%
Properties (Long-term stability test; Month 12): white crystalline
Content of Compound A (%) (Long-term stability test; Month 18): 99.37%
Content of Relevant Substance (%) (Long-term stability test; Month 18): 0.221%
Properties (Long-term stability test; Month 18): white crystalline
Relevant Substance and the content of Compound A (change, in words) (Long-term stability test; long-term stability investigating test): substantially unchanged
